Reference: patent US6472417B1, “Synergistic pesticidal composition of pyrethroid and N-phenyl-pyrazole” (priority 1994, dated 2002)
Like-named read-outs stand apart in the source and are kept apart here.

System: Coptotermes formosanusus Shiraki
Experiment: Termite control soil treatment test (Japan Wood Preservation Association Standards No. 13, 1987): bored depth, damage by eating, termite control effect
Type: in vivo
Settings: for Bored depth (mm) 14 days later: treated soil layer 1 cm
Source text: In the description of these embodiments, the term “part(s)” means part(s) by weight. The test method of embodiments was in accordance with Japan Wood Preservation Association Standards No. 13, 1987, “Standards for Testing Methods of Termite Controlling Effects and Performance of Termite Controlling Agents for Soil Treatment (I)”.
A testing apparatus was used in which two glass cylinders (each about 5 cm in diameter and about 12 cm in height) are connected at about 2 cm from the bottom with a glass tube about 1.5 cm in diameter and about 10 cm in length (graduated at 5-mm intervals for 5 cm at the center). The one glass cylinder was filled with about 60 g of non-treated soil adjusted to a moisture content of about 25%, and the other glass cylinder was filled with about 0.29 g of filter paper (5.5 mm in diameter). The glass tube was filled, at a thickness of 1 cm, with test soil prepared by mixing 2.4 g of non-treated sandy soil which had passed through a 20-mesh screen and had been dried at 60° C. until a constant weight had been achieved, with 0.45 g of the solution of the test composition of a predetermined concentration, and the mixture was allowed to stand for 3 weeks in a room without weather resistance treatment. The glass tube was connected to the glass cylinders.
In the glass cylinder filled with non-treated soil, 200 workers and 20 soldiers of Coptotermes formosanusus Shiraki were placed, and the testing apparatus was kept at a constant temperature chamber controlled at a temperature of 28° C., and a relative humidity of 70% or higher.
The bored depth (millimeters=mm), damage by eating, and the termite control effect were determined 14 days after insects were put in place, and the effect was evaluated in accordance with the following criteria: […]

[1] = Concentration (%) 0.02, single ingredient
[2] = Concentration (%) 0.1, single ingredient
[3] = Concentration (%) 0.005, single ingredient
[4] = Concentration (%) 0.01, single ingredient
[5] = Coptotermes, soil, 336 h, read-out: Termite control effect 14 days later
[6] = Concentration (%) 0.025, single ingredient
[7] = Concentration (%) 0.05, single ingredient
[8] = Concentration (%) 0.002, single ingredient

With `CCOc1ccc(C(C)(C)COCc2cccc(Oc3ccccc3)c2)cc1` [Ethofenprox, 2-(4-ethoxyphenyl)-2-methylpropyl-3-phenoxybenzyl ether] the “Damage by eating 14 days later” value [1] was “+++ (51% or more compared with non-treatment)”, the “Termite control effect 14 days later” value [1] was “D (49% lethal or less)” and the “Bored depth (mm) 14 days later” value [1] was over 10 mm. For the same compound, the “Damage by eating 14 days later” value [2] was “None”, the “Termite control effect 14 days later” value [2] was “D (49% lethal or less)” and the “Bored depth (mm) 14 days later” value [2] was over 10 mm.

For `Cc1c(COC(=O)[C@@H]2[C@H](/C=C(\Cl)C(F)(F)F)C2(C)C)cccc1-c1ccccc1` (racemic) [Bifenthrin, 2-methylbiphenyl-3-yl-methyl (Z)-1RS,3RS)-3-(2-chloro-3,3,3-trifluoroprop-1-enyl)-2-2-dimnethylcyclopropane carboxylate], the “Damage by eating 14 days later” value [3] was “+++ (51% or more compared with non-treatment)”, the “Bored depth (mm) 14 days later” value [3] was over 10 mm and the “Damage by eating 14 days later” value [4] was “+++ (51% or more compared with non-treatment)”. The “Bored depth (mm) 14 days later” value [4] was over 10 mm, the pest or weed control at 0.005 % [5] was under 49% and the pest or weed control at 0.01 % [5] was under 49%.

`N#Cc1nn(-c2c(Cl)cc(C(F)(F)F)cc2Cl)c(N)c1[S+]([O-])C(F)(F)F` (stereo not drawn) [Compound A, 5-amino-3-cyano-1-(2,6-dichloro-4-trifluoromethylphenyl)-4-trifluoromethylsulphinylpyrazole] was tested, and the “Damage by eating 14 days later” value [3] was “++ (11-50% or less compared with non-treatment)”, the “Bored depth (mm) 14 days later” value [3] was over 10 mm and the “Damage by eating 14 days later” value [4] was “+ (10% or less compared with non-treatment)”. The “Bored depth (mm) 14 days later” value [4] was over 10 mm, the “Damage by eating 14 days later” value [1] was “+ (10% or less compared with non-treatment)” and the “Bored depth (mm) 14 days later” value [1] was over 10 mm. The pest or weed control at 0.005 % [5] was 100%, the pest or weed control at 0.01 % [5] was 100% and the pest or weed control at 0.02 % [5] was 100%.

For `CC1(C)[C@H](C(=O)O[C@@H](C#N)c2ccc(F)c(Oc3ccccc3)c2)[C@@H]1C=C(Cl)Cl` (racemic) [Cyfluthrin, (RS)-a-cyano-4-fluoro-3-phenoxybenzyl (1RS, 3RS)-(1RS, 3RS)-3-(2,2-dichlorovinyl)-2,2-dimethylcyclopropane carboxylate], the “Damage by eating 14 days later” value [3] was “+++ (51% or more compared with non-treatment)”, the “Termite control effect 14 days later” value [3] was “D (49% lethal or less)” and the “Bored depth (mm) 14 days later” value [3] was over 10 mm. For the same compound, the “Damage by eating 14 days later” value [6] was “None”, the “Termite control effect 14 days later” value [6] was “D (49% lethal or less)” and the “Bored depth (mm) 14 days later” value [6] was over 10 mm.

`CC1(C)C(C=C(Cl)Cl)C1C(=O)OC(C#N)c1cccc(Oc2ccccc2)c1` (racemic) [Cypermethrin, (RS)-a-cyano-3-phenoxybenzyl (1RS,3RS)-(1RS,3SR)-3-(2,2-dichlorovinyl)-2,2-dimethylcyclopropane carboxylate] was tested, and the “Damage by eating 14 days later” value [3] was “+++ (51% or more compared with non-treatment)”, the “Bored depth (mm) 14 days later” value [3] was over 10 mm and the “Damage by eating 14 days later” value [6] was “None”. The “Bored depth (mm) 14 days later” value [6] was over 10 mm, the pest or weed control at 0.005 % [5] was under 49% and the pest or weed control at 0.025 % [5] was under 49%.

In the case of `CC(C)C(C(=O)OC(C#N)c1cccc(Oc2ccccc2)c1)c1ccc(Cl)cc1` (racemic) [Fenvalerate, (RS)-a-cyano-3-phenoxybenzyl (RS)-2-(4-chlorophenyl)-3-methylbutanoate], the “Damage by eating 14 days later” value [4] is reported as “+++ (51% or more compared with non-treatment)”, the “Bored depth (mm) 14 days later” value [4] is reported as over 10 mm and the “Damage by eating 14 days later” value [7] is reported as “+ (10% or less compared with non-treatment)”. For the same compound, the “Bored depth (mm) 14 days later” value [7] was over 10 mm, the pest or weed control at 0.01 % [5] was under 49% and the pest or weed control at 0.05 % [5] was 100%.

With `CC1(C)[C@H](C(=O)O[C@H](C#N)c2cccc(Oc3ccccc3)c2)[C@@H]1C(Br)C(Br)(Br)Br` (stereo partly drawn) [Tralomethrin, (S)-a-cyano-3-phenoxybenzyl (1R,3S)-2,2-dinethyl-3-(1,2,2,2-tetrabromoethyl)cyclopropane carboxylate] the “Damage by eating 14 days later” value [8] was “+++ (51% or more compared with non-treatment)”, the “Bored depth (mm) 14 days later” value [8] was over 10 mm and the “Damage by eating 14 days later” value [4] was “+++ (51% or more compared with non-treatment)”. For the same compound, the “Bored depth (mm) 14 days later” value [4] was over 10 mm, the pest or weed control at 0.002 % (Coptotermes, soil, 336 h, Concentration (%) 0.002, single ingredient, read-out: Termite control effect 14 days later) was under 49% and the pest or weed control at 0.01 % (Coptotermes, soil, 336 h, Concentration (%) 0.01, single ingredient, read-out: Termite control effect 14 days later) was under 49%.

For `CC1(C)C(C=C(Cl)Cl)C1C(=O)OCc1cccc(Oc2ccccc2)c1` (racemic) [Permethrin, 3-phenoxybenzyl (1RS,3RS)-(1RS,3RS)-(2,2-dichlorovinyl)-2,2-diimethylcyclopropane carboxylate], the “Damage by eating 14 days later” value [1] was “+++ (51% or more compared with non-treatment)”, the “Bored depth (mm) 14 days later” value [1] was over 10 mm and the “Damage by eating 14 days later” value [2] was “None”. For the same compound, the “Bored depth (mm) 14 days later” value [2] was over 10 mm, the pest or weed control at 0.02 % [5] was under 49% and the pest or weed control at 0.1 % [5] was under 49%.

`CC(C)[C@H](Nc1ccc(C(F)(F)F)cc1Cl)C(=O)OC(C#N)c1cccc(Oc2ccccc2)c1` (stereo partly drawn) [Fluvalinate] was tested, and the “Damage by eating 14 days later” value [7] was “+++ (51% or more compared with non-treatment)”, the “Bored depth (mm) 14 days later” value [7] was over 10 mm and the pest or weed control at 0.05 % [5] was under 49%.

`CCOc1ccc([Si](C)(C)CCCc2ccc(F)c(Oc3ccccc3)c2)cc1` [Silafluofen, 4-ethoxyphenyl-[3-(3-phenoxy-4-fluorophenyl)propyl](dimnethyl)silane] was tested, and the “Damage by eating 14 days later” value [4] was “+++ (51% or more compared with non-treatment)”, the “Bored depth (mm) 14 days later” value [4] was over 10 mm and the “Damage by eating 14 days later” value [7] was “+ (10% or less compared with non-treatment)”. For the same compound, the “Bored depth (mm) 14 days later” value [7] was over 10 mm, the pest or weed control at 0.01 % [5] was under 49% and the pest or weed control at 0.05 % [5] was 100%.
